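Values below derive from 48-hour exposures of cells grown in 96-well plates, with endpoints linearly interpolated between the two concentrations bracketing the appropriate inhibition level. At the GI50, growth is halved.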 The source made the active and inactive calls. Rule as the data show it: active = GI50 up to about 1.1 µM and inactive = higher.
Experiments:
Experiment in all cases: NCI tumour cell line growth inhibition, 48 h
MDA-MB-231 = system: MDA-MB-231
COLO 205 = system: COLO 205
DU-145 = system: DU-145
SNB-19 = system: SNB-19
SF-539 = system: SF-539
SK-MEL-5 = system: SK-MEL-5
SK-MEL-28 = system: SK-MEL-28
RPMI-8226 = system: RPMI-8226
K562 = system: K562
Hs-578T = system: Hs-578T
HCT-116 = system: HCT-116
T47D = system: T47D
HCT-15 = system: HCT-15
NCI-H460 = system: NCI-H460
M14 = system: M14
NCI/ADR-RES = system: NCI/ADR-RES
786-0 = system: 786-0
OVCAR-5 = system: OVCAR-5
Malme-3M = system: Malme-3M
NCI-H522 = system: NCI-H522

Row | Structure (SMILES) | GI50 (MDA-MB-231) | GI50 (COLO 205) | GI50 (DU-145) | GI50 (SNB-19) | GI50 (SF-539) | GI50 (SK-MEL-5) | GI50 (SK-MEL-28) | GI50 (RPMI-8226) | GI50 (K562) | GI50 (Hs-578T) | GI50 (HCT-116) | GI50 (T47D) | GI50 (HCT-15) | GI50 (NCI-H460) | GI50 (M14) | GI50 (NCI/ADR-RES) | GI50 (786-0) | GI50 (OVCAR-5) | GI50 (Malme-3M) | GI50 (NCI-H522)
1 | O=C(c1ccccc1)c1ccc(N2C(=O)/C(=C/c3cccc([N+](=O)[O-])c3)N=C2c2ccccc2)c(N2C(=O)/C(=C/c3cccc([N+](=O)[O-])c3)N=C2c2ccccc2)c1 | > 100 µM (inactive) | 2.77 µM (inactive) | 51.9 µM (inactive) | 54.8 µM (inactive) | 26.3 µM (inactive) | 2.34 µM (inactive) | 78.3 µM (inactive) | 12.8 µM (inactive) | 31.7 µM (inactive) | 30.7 µM (inactive) | 39.4 µM (inactive) | 24 µM (inactive) | 16.5 µM | 5.28 µM (inactive) | 14.4 µM (inactive) | 25.1 µM (inactive) | 79.1 µM (inactive) | > 100 µM (inactive) |  | 
2 | c1ccc(CN2CCC(Nc3ccccc3)(c3nnnn3Cc3ccccc3)CC2)cc1 | 27.2 µM (inactive) | 11.6 µM (inactive) | 38.4 µM (inactive) | 27.3 µM (inactive) | 20.5 µM (inactive) | 13 µM (inactive) | 17.2 µM (inactive) | 12.9 µM (inactive) |  | 24.2 µM (inactive) | 20.1 µM (inactive) | 19.5 µM (inactive) | 27.5 µM | 15.7 µM (inactive) | 16.1 µM (inactive) | 24.5 µM (inactive) | 22.4 µM (inactive) | 22.5 µM (inactive) | 18.5 µM (inactive) | 
3 | CN(/N=C/c1ccccn1)C1=NCCCCN1 | > 100 µM (inactive) | > 100 µM (inactive) |  | > 100 µM (inactive) | > 100 µM (inactive) | > 100 µM (inactive) | > 100 µM (inactive) | > 100 µM (inactive) | > 100 µM (inactive) | > 100 µM (inactive) | > 100 µM (inactive) | > 100 µM (inactive) | > 100 µM | > 100 µM (inactive) | > 100 µM (inactive) | > 100 µM (inactive) | > 100 µM (inactive) | > 100 µM (inactive) | > 100 µM (inactive) | > 100 µM (inactive)
4 | Cc1cc2nc(N3C(=O)/C(=C/c4ccc(Cl)cc4)N=C3c3ccccc3)sc2cc1C | 50 µM (inactive) | 16.1 µM (inactive) | 50.8 µM (inactive) | 42.5 µM (inactive) | 18.7 µM (inactive) | 16.1 µM (inactive) | 55.7 µM (inactive) | 35.9 µM (inactive) | 32.4 µM (inactive) | 26 µM (inactive) | 18.4 µM (inactive) | 27.5 µM (inactive) | 29.1 µM | 23.7 µM (inactive) | 32.7 µM (inactive) | 23.2 µM (inactive) | 29.4 µM (inactive) | 24.2 µM (inactive) |  | 
5 | COC(=O)C1=C(O)C(C(=O)OC)[C@]2(O)[C@H](C(=O)OC)[C@H]1C[C@@H](c1ccc(F)cc1)[C@H]2C(=O)OC (stereo partly drawn) | 30.1 µM (inactive) | 14.7 µM (inactive) | 14.8 µM (inactive) | 19.1 µM (inactive) | 18.2 µM (inactive) | 12.3 µM (inactive) | 14.2 µM (inactive) | 16.2 µM (inactive) | 9.23 µM (inactive) | 21.7 µM (inactive) | 7.19 µM (inactive) | 22.6 µM (inactive) | 12.3 µM | 17.4 µM (inactive) | 10.4 µM (inactive) | 4.98 µM (inactive) | 14.9 µM (inactive) | 17.7 µM (inactive) | 12.9 µM (inactive) | 
6 | O=[N+]([O-])c1cc2ccc1OCc1cccc(n1)COc1ccc(cc1[N+](=O)[O-])/C=N\CCCCCCCC/N=C\2 | > 100 µM (inactive) | > 100 µM (inactive) | > 100 µM (inactive) | > 100 µM (inactive) | > 100 µM (inactive) | > 100 µM (inactive) | > 100 µM (inactive) | > 100 µM (inactive) | > 100 µM (inactive) | > 100 µM (inactive) | > 100 µM (inactive) |  | > 100 µM | > 100 µM (inactive) | > 100 µM (inactive) | > 100 µM (inactive) | > 100 µM (inactive) | > 100 µM (inactive) | > 100 µM (inactive) | > 100 µM (inactive)
7 | CCOC(=O)c1c(N)n(-c2ccccc2)c(=O)n(-c2ccccc2)c1=O | > 100 µM (inactive) | > 100 µM (inactive) | > 100 µM (inactive) | > 100 µM (inactive) |  | > 100 µM (inactive) | > 100 µM (inactive) | > 100 µM (inactive) | > 100 µM (inactive) | > 100 µM (inactive) |  | > 100 µM (inactive) | > 100 µM | > 100 µM (inactive) | > 100 µM (inactive) |  | > 100 µM (inactive) | > 100 µM (inactive) | > 100 µM (inactive) | > 100 µM (inactive)

From ChEMBL document CHEMBL1201862, “PubChem BioAssay data set” (2004)
